Patent publication US10612068B2, “Culture medium containing a spore germination inhibiting or delaying compound” (BIOMERIEUX, priority 2008, dated 2020)

Tests used:
[1] = test system: Bacillus (Bacillus licheniformis, Bacillus thuringiensis/cereus) present in sporulated form; test: Milk powder samples not contaminated with Staphylococcus aureus incubated in culture medium with or without D-alanine; fluorescence reading and MPN count of nonspecific growth; assay type: cell-based
Procedure: The example described hereinafter illustrates the inhibiting effect of D-alanine on the […] of microorganisms of Bacillus type (such as Bacillus licheniformis, Bacillus thuringiensis/cereus).
To do this, 59 samples of milk powder products liable to contain Bacillus microorganisms, also not contaminated with Staphylococcus aureus, were tested.
In order to study the inhibiting effect of D-alanine, two culture media were tested:
Medium 1: culture medium without D-alanine,
Medium 2: culture medium in the presence of D-alanine at a final concentration in the medium of between 0.05 and 0.1 mol/l (final concentration in the medium).
The composition of said culture medium is the following (in g/l, final concentration in the medium with or without D-alanine):
The samples were prepared according to ISO standard 8261: 2001 (concerning milk and milk products and relating to the “general guidelines for the preparation of test samples, of the stock suspension and of the decimal dilutions for the purpose of microbiological examination”) according to the following steps: • a) 10 grams of the sample are weighed out and placed in a Stomacher® bag, • b) 90 ml of tryptone salt diluent preheated to 45° C. are added so as to obtain an initial 1/10 dilution of the sample, • c) grinding is carried out using a Stomacher® machine for one minute, • d) the Stomacher® bag is placed in a water bath and stirred for 5 minutes at 45° C., • e) 1 ml of the sample (diluted to 1/10) is taken and placed in 3 ml of culture medium so as to obtain a 1/40 dilution, • f) incubation is carried out for a period of between 24 and 27 hours at a temperature of 37° C., • g) the culture medium is read by fluorescence and the level of contamination of the sample with microorganisms is determined by means of the most probable number technique.
The reading consists of a measurement of the fluorescence of the culture medium obtained after incubation. A large variation in the fluorescence values attests to acidification of the medium, said acidification itself resulting from the growth of one or more microorganisms.
The CV fluorescence values were calculated on the basis of the samples tested (not contaminated with Staphylococcus aureus).
The higher the CV, the greater the acidification of the medium, thereby attesting to growth of the microorganisms present in the culture medium. Conversely, the lower the CV, the less the acidification, thereby reflecting less growth of the microorganisms. The specificity of the medium is therefore better and the risk of false positives is therefore less (false-positive result linked to the acidification of the medium by a bacterium of a microorganism other than Staphylococcus aureus). […]

[2] = test system: Bacillus licheniformis spores; details: L-alanine dehydrogenase dependent first step; cited from earlier work

SMILES | % of samples with MPN count <10 (good specificity) ([1]; 59 milk powder samples, D-alanine 0.05-0.1 mol/l, 24-27 hours at 37° C.) [%] | rate of false-positive results ([1]; 59 milk powder samples, false positives related to growth of Bacillus) [%] | highest false-positive count result ([1]; 59 milk powder samples, with the use of D-alanine) [CFU/gram] | effect on CV values obtained after incubation of the medium ([1]; D-alanine in the culture medium vs. medium without) | inhibition of the first step of spore germination [2]
C[C@@H](N)C(=O)O [D-alanine] | 89.83 | 10.17 | ≤ 50 | greatly reduce the CV values | inhibited
CCOC(=O)C(C)=O [ethyl pyruvate] |  |  |  |  | inhibited
CCCCCCCCO [octanol] |  |  |  |  | inhibited
